From patent publication US12479847B2 (DANA-FARBER CANCER INSTITUTE, INC., priority 2019, dated 2025)

Key:
Assay in all cases: KINOMEscan (ScanMAX) kinase profiling
Format in all cases: binding
panel of 468 kinases [1] = biological target: T1, panel of 468 kinases (Homo sapiens, UniProt O15264); details: p38-delta; 1 μM; read-out: % control
T1 construct: purchased KINOMEscan (ScanMAX) service
T1 sequence (O15264 1-365): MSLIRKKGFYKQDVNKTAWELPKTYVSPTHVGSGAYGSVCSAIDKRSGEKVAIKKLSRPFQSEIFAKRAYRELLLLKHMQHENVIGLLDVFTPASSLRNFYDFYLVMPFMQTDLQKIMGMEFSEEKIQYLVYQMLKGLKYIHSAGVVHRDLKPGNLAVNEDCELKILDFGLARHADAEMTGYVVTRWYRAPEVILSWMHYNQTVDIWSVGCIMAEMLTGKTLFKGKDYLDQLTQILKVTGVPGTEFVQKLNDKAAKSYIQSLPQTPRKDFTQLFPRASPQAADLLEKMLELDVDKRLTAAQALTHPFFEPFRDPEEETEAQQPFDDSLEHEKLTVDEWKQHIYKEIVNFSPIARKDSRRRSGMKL

panel of 468 kinases [2] = biological target: T2, panel of 468 kinases (Homo sapiens, UniProt O14936); details: CASK; 1 μM; read-out: % control
T2 construct: purchased KINOMEscan (ScanMAX) service
T2 sequence (O14936 1-926): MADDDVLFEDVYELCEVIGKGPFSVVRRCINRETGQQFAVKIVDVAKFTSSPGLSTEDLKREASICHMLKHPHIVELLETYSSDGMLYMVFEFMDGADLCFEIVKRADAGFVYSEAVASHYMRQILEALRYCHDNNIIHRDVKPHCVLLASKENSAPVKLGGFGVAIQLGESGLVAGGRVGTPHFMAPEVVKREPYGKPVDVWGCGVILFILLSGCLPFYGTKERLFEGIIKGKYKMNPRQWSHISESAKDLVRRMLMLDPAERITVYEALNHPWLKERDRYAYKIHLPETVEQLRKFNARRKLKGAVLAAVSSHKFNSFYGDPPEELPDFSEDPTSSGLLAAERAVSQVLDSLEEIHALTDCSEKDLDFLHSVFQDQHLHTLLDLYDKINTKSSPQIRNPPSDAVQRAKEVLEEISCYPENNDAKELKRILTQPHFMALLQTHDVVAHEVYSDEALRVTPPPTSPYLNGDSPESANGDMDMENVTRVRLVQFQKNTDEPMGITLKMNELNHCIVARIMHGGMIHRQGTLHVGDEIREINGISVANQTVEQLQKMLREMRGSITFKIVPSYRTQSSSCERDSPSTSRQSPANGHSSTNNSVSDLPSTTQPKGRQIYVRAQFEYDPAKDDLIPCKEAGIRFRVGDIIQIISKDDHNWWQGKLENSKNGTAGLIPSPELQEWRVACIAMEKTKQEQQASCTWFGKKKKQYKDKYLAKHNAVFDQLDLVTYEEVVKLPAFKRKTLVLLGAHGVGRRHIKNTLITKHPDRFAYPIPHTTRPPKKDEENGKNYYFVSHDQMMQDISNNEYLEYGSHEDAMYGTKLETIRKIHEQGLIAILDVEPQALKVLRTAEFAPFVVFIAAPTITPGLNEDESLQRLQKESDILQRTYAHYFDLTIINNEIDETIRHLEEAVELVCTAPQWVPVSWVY

panel of 468 kinases [3] = biological target: T3, panel of 468 kinases (Homo sapiens, UniProt Q15569); details: TESK1; 1 μM; read-out: % control
T3 construct: purchased KINOMEscan (ScanMAX) service

panel of 468 kinases [4] = biological target: T4, panel of 468 kinases (Homo sapiens, UniProt Q59H18); details: TNNI3K; 1 μM; read-out: % control
T4 construct: purchased KINOMEscan (ScanMAX) service
T4 sequence (Q59H18 1-835): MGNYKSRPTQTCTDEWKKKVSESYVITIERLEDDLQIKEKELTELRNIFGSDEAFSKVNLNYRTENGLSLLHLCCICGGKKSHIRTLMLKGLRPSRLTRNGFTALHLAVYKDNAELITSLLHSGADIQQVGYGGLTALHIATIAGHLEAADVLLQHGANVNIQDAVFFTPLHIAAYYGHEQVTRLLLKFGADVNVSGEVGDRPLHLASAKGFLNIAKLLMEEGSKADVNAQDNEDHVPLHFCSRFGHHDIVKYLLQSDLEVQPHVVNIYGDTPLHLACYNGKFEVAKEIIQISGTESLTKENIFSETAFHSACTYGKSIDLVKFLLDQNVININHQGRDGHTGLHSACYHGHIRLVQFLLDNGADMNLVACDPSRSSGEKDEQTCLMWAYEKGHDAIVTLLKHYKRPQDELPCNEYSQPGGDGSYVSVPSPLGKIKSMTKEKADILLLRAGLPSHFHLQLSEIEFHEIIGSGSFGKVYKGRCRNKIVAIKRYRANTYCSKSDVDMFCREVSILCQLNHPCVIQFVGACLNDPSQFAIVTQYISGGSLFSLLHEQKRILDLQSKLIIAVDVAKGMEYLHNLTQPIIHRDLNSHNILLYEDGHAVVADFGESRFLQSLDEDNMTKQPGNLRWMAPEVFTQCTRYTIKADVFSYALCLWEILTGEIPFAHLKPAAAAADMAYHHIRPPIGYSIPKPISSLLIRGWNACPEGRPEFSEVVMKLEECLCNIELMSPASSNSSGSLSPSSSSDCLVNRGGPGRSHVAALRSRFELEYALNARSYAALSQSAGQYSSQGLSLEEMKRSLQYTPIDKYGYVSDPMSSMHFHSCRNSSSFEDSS

panel of 468 kinases [5] = biological target: T5, panel of 468 kinases (Homo sapiens, UniProt Q9P0L2); details: MARK1; 1 μM; read-out: % control
T5 construct: purchased KINOMEscan (ScanMAX) service
T5 sequence (Q9P0L2 whole entry): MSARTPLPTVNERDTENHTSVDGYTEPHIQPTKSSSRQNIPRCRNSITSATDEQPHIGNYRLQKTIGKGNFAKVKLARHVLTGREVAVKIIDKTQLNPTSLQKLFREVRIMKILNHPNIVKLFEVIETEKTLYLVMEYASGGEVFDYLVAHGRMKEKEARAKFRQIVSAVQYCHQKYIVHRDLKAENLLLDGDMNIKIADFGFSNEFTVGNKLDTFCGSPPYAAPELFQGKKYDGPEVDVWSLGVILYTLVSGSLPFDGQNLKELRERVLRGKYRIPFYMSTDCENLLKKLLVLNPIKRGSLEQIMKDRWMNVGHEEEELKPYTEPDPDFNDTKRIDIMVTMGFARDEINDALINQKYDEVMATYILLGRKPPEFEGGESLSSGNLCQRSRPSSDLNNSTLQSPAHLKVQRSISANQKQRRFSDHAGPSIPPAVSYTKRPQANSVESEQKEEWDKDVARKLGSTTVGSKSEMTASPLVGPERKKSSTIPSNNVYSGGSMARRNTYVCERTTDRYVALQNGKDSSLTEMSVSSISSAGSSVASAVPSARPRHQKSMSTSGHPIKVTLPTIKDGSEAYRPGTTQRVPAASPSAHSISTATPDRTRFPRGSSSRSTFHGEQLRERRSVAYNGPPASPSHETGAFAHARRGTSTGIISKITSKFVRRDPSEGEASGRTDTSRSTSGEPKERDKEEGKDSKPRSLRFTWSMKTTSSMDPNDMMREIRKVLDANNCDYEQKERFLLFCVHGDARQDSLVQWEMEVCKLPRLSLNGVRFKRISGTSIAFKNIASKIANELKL

T3 sequence (Q15569 whole entry): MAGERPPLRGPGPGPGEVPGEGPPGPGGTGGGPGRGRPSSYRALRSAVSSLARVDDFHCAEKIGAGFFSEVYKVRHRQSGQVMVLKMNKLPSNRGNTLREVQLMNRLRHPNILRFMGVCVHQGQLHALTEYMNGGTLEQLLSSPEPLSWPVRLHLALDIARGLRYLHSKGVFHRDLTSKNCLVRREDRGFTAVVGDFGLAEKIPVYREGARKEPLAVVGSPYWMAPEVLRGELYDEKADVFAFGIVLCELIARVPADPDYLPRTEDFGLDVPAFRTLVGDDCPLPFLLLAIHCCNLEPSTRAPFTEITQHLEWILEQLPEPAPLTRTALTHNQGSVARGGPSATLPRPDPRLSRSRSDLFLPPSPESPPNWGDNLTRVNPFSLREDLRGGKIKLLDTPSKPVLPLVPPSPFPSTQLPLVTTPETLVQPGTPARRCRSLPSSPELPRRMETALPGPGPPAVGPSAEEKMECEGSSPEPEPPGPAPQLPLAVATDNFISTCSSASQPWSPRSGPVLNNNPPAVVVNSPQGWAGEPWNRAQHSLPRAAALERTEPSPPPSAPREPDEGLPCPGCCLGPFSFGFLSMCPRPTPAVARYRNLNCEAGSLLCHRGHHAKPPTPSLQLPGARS

Row | Compound | remaining binding at 1 µM (panel of 468 kinases [1]) | remaining binding at 1 µM (panel of 468 kinases [2]) | remaining binding at 1 µM (panel of 468 kinases [3]) | remaining binding at 1 µM (panel of 468 kinases [4]) | remaining binding at 1 µM (panel of 468 kinases [5])
1 | CNc1nc(Nc2ccc(C(=O)N3CCC(N4CCOCC4)CC3)c3c2OCO3)nc2[nH]cc(Cl)c12 [Compound 75, (7-((5-chloro-4-(methylamino)-7H-pyrrolo[2,3-d]pyrimidin-2-yl)amino)benzo[d][1,3]dioxol-4-yl)(4-morpholinopiperidin-1-yl)methanone] | 100% | 99% | 100% | 100% | 100%
2 | CNc1nc(Nc2ccc(S(=O)(=O)N3CCC(N4CCOCC4)CC3)cc2OC)nc2[nH]cc(Cl)c12 [Compound 12, 5-chloro-N2-(2-methoxy-4-((4-morpholinopiperidin-1-yl)sulfonyl)phenyl)-N4-methyl-7H-pyrrolo[2,3-d]pyrimidine-2,4-diamine] | 100% | 90% | 100% | 100% | 100%
3 | CNc1nc(Nc2ccc(P3(=O)CCN(C4CCOCC4)CC3)cc2OC)nc2[nH]cc(Cl)c12 [Compound 77, 4-(4-((5-chloro-4-(methylamino)-7H-pyrrolo[2,3-d]pyrimidin-2-yl)amino)-3-methoxyphenyl)-1-(tetrahydro-2H-pyran-4-yl)-1,4-azaphosphinane 4-oxide] | 100% | 95% | 100% | 100% | 96%
